Data as given in PubChem BioAssay AID2060494 (Molecular Pharmacology Branch, DTP, NCI, 2025).
Each block holds one molecule with its values, some of them ahead of it.

System: 435261-313-R-J1-PDC complex spheroid viability
Experiment: Anticancer human tumor 435261-313-R-J1-PDC patient-derived colon adenocarcinoma cell line growth inhibition [GQUAD]
Conditions: for IC50: curve of first compound; for viability, T/C: stronger effect = lower value
In short: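 Viability of tumor cells grown as complex spheroids with endothelial and stromal cells, exposed to drug combinations. Top concentration at or near clinical Cmax (else 10 microM), diluted in half-log increments.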

[1] = second compound 0.0316 µM, first compound 0.0316 µM
[2] = second compound 0.0316 µM, first compound 0.1 µM
[3] = second compound 0.0316 µM, first compound 0.316 µM
[4] = second compound 0.0316 µM, first compound 1 µM
[5] = second compound 0.0316 µM, first compound 3.16 µM
[6] = second compound 0.0316 µM, first compound 10 µM
[7] = second compound 0.1 µM, first compound 0.0316 µM
[8] = second compound 0.1 µM, first compound 0.1 µM
[9] = second compound 0.1 µM, first compound 0.316 µM
[10] = second compound 0.1 µM, first compound 1 µM
[11] = second compound 0.1 µM, first compound 3.16 µM
[12] = second compound 0.1 µM, first compound 10 µM
[13] = second compound 0.316 µM, first compound 0.0316 µM
[14] = second compound 0.316 µM, first compound 0.1 µM
[15] = second compound 0.316 µM, first compound 0.316 µM
[16] = second compound 0.316 µM, first compound 1 µM
[17] = second compound 0.316 µM, first compound 3.16 µM
[18] = second compound 0.316 µM, first compound 10 µM
[19] = second compound 1 µM, first compound 0.0316 µM
[20] = second compound 1 µM, first compound 0.1 µM
[21] = second compound 1 µM, first compound 0.316 µM
[22] = second compound 1 µM, first compound 1 µM
[23] = second compound 1 µM, first compound 3.16 µM
[24] = second compound 1 µM, first compound 10 µM
[25] = second compound 3.16 µM, first compound 0.0316 µM
[26] = second compound 3.16 µM, first compound 0.1 µM
[27] = second compound 3.16 µM, first compound 0.316 µM
[28] = second compound 3.16 µM, first compound 1 µM
[29] = second compound 3.16 µM, first compound 3.16 µM
[30] = second compound 3.16 µM, first compound 10 µM
[31] = second compound 10 µM, first compound 0.0316 µM
[32] = second compound 10 µM, first compound 0.1 µM
[33] = second compound 10 µM, first compound 0.316 µM
[34] = second compound 10 µM, first compound 1 µM
[35] = second compound 10 µM, first compound 3.16 µM
[36] = second compound 10 µM, first compound 10 µM
[37] = second compound 0.0316 µM, first compound 0.000999 µM
[38] = second compound 0.0316 µM, first compound 0.00316 µM
[39] = second compound 0.0316 µM, first compound 0.00999 µM
[40] = second compound 0.0316 µM, first compound 0.0999 µM
[41] = second compound 0.1 µM, first compound 0.000999 µM
[42] = second compound 0.1 µM, first compound 0.00316 µM
[43] = second compound 0.1 µM, first compound 0.00999 µM
[44] = second compound 0.1 µM, first compound 0.0999 µM
[45] = second compound 0.316 µM, first compound 0.000999 µM
[46] = second compound 0.316 µM, first compound 0.00316 µM
[47] = second compound 0.316 µM, first compound 0.00999 µM
[48] = second compound 0.316 µM, first compound 0.0999 µM
[49] = second compound 1 µM, first compound 0.000999 µM
[50] = second compound 1 µM, first compound 0.00316 µM
[51] = second compound 1 µM, first compound 0.00999 µM
[52] = second compound 1 µM, first compound 0.0999 µM
[53] = second compound 3.16 µM, first compound 0.000999 µM
[54] = second compound 3.16 µM, first compound 0.00316 µM
[55] = second compound 3.16 µM, first compound 0.00999 µM
[56] = second compound 3.16 µM, first compound 0.0999 µM
[57] = second compound 10 µM, first compound 0.000999 µM
[58] = second compound 10 µM, first compound 0.00316 µM
[59] = second compound 10 µM, first compound 0.00999 µM
[60] = second compound 10 µM, first compound 0.0999 µM
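Note: spheroids exposed to the agents for seven days before readout.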
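Throughout, for viability, T/C: percent of vehicle control viability with DMSO wells as 100%.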

- IC50 (second compound 0.0316 µM): > 10000 nM
- IC50 (second compound 0.1 µM): > 10000 nM
- IC50 (second compound 0.316 µM): > 10000 nM
- IC50 (second compound 1 µM): < 31.6 nM
- IC50 (second compound 3.16 µM): < 31.6 nM
- IC50 (second compound 10 µM): < 31.6 nM
SMILES: C=CC(=O)N1CCN(c2nc(=O)n(-c3c(C)ccnc3C(C)C)c3nc(-c4c(O)cccc4F)c(F)cc23)C(C)C1 (stereo not drawn) + Cc1cnc(CNC(=O)c2c(=O)c3ccc(N4CCCN(C)CC4)nc3n3c2sc2ccccc23)cn1
- viability, T/C [1]: 76.1%
- viability, T/C [2]: 59.5%
- viability, T/C [3]: 86.8%
- viability, T/C [4]: 68.1%
- viability, T/C [5]: 98.3%
- viability, T/C [6]: 67.4%
- viability, T/C [7]: 47.9%
- viability, T/C [8]: 63.3%
- viability, T/C [9]: 56.6%
- viability, T/C [10]: 63.3%
- viability, T/C [11]: 63.8%
- viability, T/C [12]: 65.7%
- viability, T/C [13]: 56.4%
- viability, T/C [14]: 59.3%
- viability, T/C [15]: 60%
- viability, T/C [16]: 52%
- viability, T/C [17]: 71.1%
- viability, T/C [18]: 65.1%
- viability, T/C [19]: 37.4%
- viability, T/C [20]: 39.1%
- viability, T/C [21]: 48%
- viability, T/C [22]: 47.5%
- viability, T/C [23]: 48.8%
- viability, T/C [24]: 47.9%
- viability, T/C [25]: 19.2%
- viability, T/C [26]: 21.6%
- viability, T/C [27]: 24.2%
- viability, T/C [28]: 29.7%
- viability, T/C [29]: 23.5%
- viability, T/C [30]: 14.3%
- viability, T/C [31]: 0.21%
- viability, T/C [32]: 0.22%
- viability, T/C [33]: 0.17%
- viability, T/C [34]: 0.25%
- viability, T/C [35]: 0.22%
- viability, T/C [36]: 0.16%

- IC50 (second compound 0.0316 µM): 53.2 nM
- IC50 (second compound 0.1 µM): 48 nM
- IC50 (second compound 0.316 µM): 11.2 nM
- IC50 (second compound 1 µM): < 0.999 nM
- IC50 (second compound 3.16 µM): < 0.999 nM
- IC50 (second compound 10 µM): < 0.999 nM
SMILES: CCc1c2c(nc3ccc(O)cc13)-c1cc3c(c(=O)n1C2)COC(=O)[C@]3(O)CC + Cc1cnc(CNC(=O)c2c(=O)c3ccc(N4CCCN(C)CC4)nc3n3c2sc2ccccc23)cn1
- viability, T/C [37]: 63.5%
- viability, T/C [38]: 60.3%
- viability, T/C [39]: 56.9%
- viability, T/C [1]: 53.3%
- viability, T/C [40]: 47%
- viability, T/C [3]: 30.9%
- viability, T/C [41]: 66.2%
- viability, T/C [42]: 65.6%
- viability, T/C [43]: 52.2%
- viability, T/C [7]: 52.7%
- viability, T/C [44]: 47.1%
- viability, T/C [9]: 17.5%
- viability, T/C [45]: 52.9%
- viability, T/C [46]: 60%
- viability, T/C [47]: 51.5%
- viability, T/C [13]: 34.5%
- viability, T/C [48]: 36.9%
- viability, T/C [15]: 1.36%
- viability, T/C [49]: 38.9%
- viability, T/C [50]: 35%
- viability, T/C [51]: 35.6%
- viability, T/C [19]: 28.7%
- viability, T/C [52]: 14.9%
- viability, T/C [21]: 0.15%
- viability, T/C [53]: 13.5%
- viability, T/C [54]: 12.2%
- viability, T/C [55]: 4.86%
- viability, T/C [25]: 0.17%
- viability, T/C [56]: 0.14%
- viability, T/C [27]: 0.15%
- viability, T/C [57]: 0.15%
- viability, T/C [58]: 0.14%
- viability, T/C [59]: 0.19%
- viability, T/C [31]: 0.2%
- viability, T/C [60]: 0.2%
- viability, T/C [33]: 0.14%

- IC50 (second compound 0.0316 µM): > 10000 nM
- IC50 (second compound 0.1 µM): > 10000 nM
- IC50 (second compound 0.316 µM): > 10000 nM
- IC50 (second compound 1 µM): < 31.6 nM
- IC50 (second compound 3.16 µM): < 31.6 nM
- IC50 (second compound 10 µM): < 31.6 nM
SMILES: Cc1cccc(N(C)C(=O)C2C(O)CCN2c2nc(C)cc(C(F)(F)F)c2C#N)c1 (stereo not drawn) + Cc1cnc(CNC(=O)c2c(=O)c3ccc(N4CCCN(C)CC4)nc3n3c2sc2ccccc23)cn1
- viability, T/C [1]: 72.9%
- viability, T/C [2]: 76.9%
- viability, T/C [3]: 73.3%
- viability, T/C [4]: 63.7%
- viability, T/C [5]: 75.8%
- viability, T/C [6]: 81.6%
- viability, T/C [7]: 59.2%
- viability, T/C [8]: 66%
- viability, T/C [9]: 52.2%
- viability, T/C [10]: 56.3%
- viability, T/C [11]: 61.5%
- viability, T/C [12]: 62.3%
- viability, T/C [13]: 49.1%
- viability, T/C [14]: 52.5%
- viability, T/C [15]: 65.3%
- viability, T/C [16]: 51.7%
- viability, T/C [17]: 51.1%
- viability, T/C [18]: 53%
- viability, T/C [19]: 42%
- viability, T/C [20]: 53%
- viability, T/C [21]: 47.9%
- viability, T/C [22]: 51.6%
- viability, T/C [23]: 48.6%
- viability, T/C [24]: 45.3%
- viability, T/C [25]: 16.1%
- viability, T/C [26]: 21%
- viability, T/C [27]: 17%
- viability, T/C [28]: 17.3%
- viability, T/C [29]: 12.8%
- viability, T/C [30]: 9.97%
- viability, T/C [31]: 0.21%
- viability, T/C [32]: 5.23%
- viability, T/C [33]: 6.24%
- viability, T/C [34]: 0.26%
- viability, T/C [35]: 0.33%
- viability, T/C [36]: 0.25%

- IC50 (second compound 0.0316 µM): > 316 nM
- IC50 (second compound 0.1 µM): > 316 nM
- IC50 (second compound 0.316 µM): > 316 nM
- IC50 (second compound 1 µM): < 0.999 nM
- IC50 (second compound 3.16 µM): < 0.999 nM
- IC50 (second compound 10 µM): < 0.999 nM
SMILES: Cn1ncnc1[C@H]1c2n[nH]c(=O)c3cc(F)cc(c23)N[C@@H]1c1ccc(F)cc1 + Cc1cnc(CNC(=O)c2c(=O)c3ccc(N4CCCN(C)CC4)nc3n3c2sc2ccccc23)cn1
- viability, T/C [37]: 82.1%
- viability, T/C [38]: 60.3%
- viability, T/C [39]: 66.2%
- viability, T/C [1]: 60.9%
- viability, T/C [40]: 72.1%
- viability, T/C [3]: 62.9%
- viability, T/C [41]: 59.5%
- viability, T/C [42]: 60.5%
- viability, T/C [43]: 47.1%
- viability, T/C [7]: 57%
- viability, T/C [44]: 59.4%
- viability, T/C [9]: 62.4%
- viability, T/C [45]: 58.9%
- viability, T/C [46]: 57.8%
- viability, T/C [47]: 55.4%
- viability, T/C [13]: 53.1%
- viability, T/C [48]: 49.6%
- viability, T/C [15]: 53.4%
- viability, T/C [49]: 42.4%
- viability, T/C [50]: 46.8%
- viability, T/C [51]: 59.2%
- viability, T/C [19]: 49.8%
- viability, T/C [52]: 47.1%
- viability, T/C [21]: 46.9%
- viability, T/C [53]: 17.9%
- viability, T/C [54]: 18.4%
- viability, T/C [55]: 12.7%
- viability, T/C [25]: 23%
- viability, T/C [56]: 20.4%
- viability, T/C [27]: 11.9%
- viability, T/C [57]: 0.24%
- viability, T/C [58]: 11.3%
- viability, T/C [59]: 0.24%
- viability, T/C [31]: 0.21%
- viability, T/C [60]: 0.18%
- viability, T/C [33]: 9.04%
